Where a name gives a salt, the structure may show the parent alone.
Each compound was assayed on NRG1-ERBB4 signaling (assay: Nrg1-ERBB4-PIK3R1 split TEV co-culture compound screen of the NIH Clinical Collection). Settings: not given.
Format: cell-based, human
Text: For our HTS‐compatible split TEV assay approach, human full‐length ERBB4‐Cyt1 was fused to the NTEV fragment, a TEV protease cleavage site (tevS) and the artificial co‐transcriptional activator Gal4‐VP16 (ERBB4‐NTEV‐tevS‐GV); human PIK3R1 was fused to the CTEV fragment (PIK3R1‐CTEV) (Fig 1A). Upon ERBB4 activation, PIK3R1 is recruited to the receptor resulting in a reconstituted protease activity that cleaves off GV. In turn, released GV translocates to the nucleus and binds to upstream activating sequences (UAS) to activate the transcription of a firefly luciferase reporter gene (Fig 1A). A constitutively expressed Renilla luciferase driven under the control of the human thymidine kinase (TK) promoter was used as control to address off‐target effects related to toxicity.
For small molecule screening, the NIH‐NCC Clinical Collection library (sets NCC‐003 and NCC‐201) was used containing 727 small molecules that are FDA‐approved and have a history in clinical applications (www.nihclinicalcollection.com). A Hamilton Labstar robot connected to 37 and 4°C incubators for cell incubation and compound storage and application (Cytomat automated incubator, ThermoScientific) and to a luciferase reader (Berthold Technologies) was used to automatically perform the screening. […] Each batch was screened three times.
For one 96‐well plate, 4 × 10^6 PC12 cells were harvested and diluted in 5 ml assay medium (phenol red‐free DMEM (low glucose, Life Technologies), 10% FCS, 5% HS, no antibiotics). The split TEV assay plasmids (2 μg pcDNA3_ERBB4‐NTEV‐tevS‐GV‐2xHA, 2 μg pTag4C_PIK3R1‐CTEV‐2xHA, 2 μg p5xUAS_firefly luciferase, 2 μg pTK_Renilla luciferase, and 0.5 μg pECFP‐C1 for examining transfection efficiency) were diluted in 2.5 ml Opti‐MEM (Life Technologies) and vortexed. In parallel, 20 μl of the transfection reagent Lipofectamine 2000 was diluted in 2.5 ml Opti‐MEM and vortexed.
For plating of one 96‐well plate, 10 ml suspension, containing the 4 × 10^6 in solution‐transfected cells, was placed in the bubble paddle reservoir of the Hamilton Cellstar robot. 100 μl was seeded per 96‐well using the 96‐tip pipetting head. The homogeneity of the cell suspension was guaranteed over time by mild stirring using the paddling device inside the reservoir. For five plates each, 50 ml of additional cell suspension was used to allow for losses of inaccessible volume.
The cells were allowed to express the plasmids for 24 h before compounds were added. Proper expression and transfection efficiency were verified by ECFP expression on a clear control plate. The compounds were applied in a final concentration of 10 μM using DMSO as diluent. […] Thirty minutes later, 10,000 Nrg1‐expressing PC12 cells in 100 μl assay medium were seeded on top. 24 h after addition of the compounds, the cells were lysed using 40 μl Passive Lysis buffer (Promega) and subjected to a Dual Luciferase Assay (Promega) according to the manufacturer's instructions. The data were analyzed in R Bioconductor using the package cellHTS2 (http://www.bioconductor.org/packages/devel/bioc/html/cellHTS2.html), assessed using the z‐score, and visualized using the program Mondrian (http://stats.math.uni-augsburg.de/mondrian/).

| Compound | Z-SCORE |
| --- | --- |
| CCCSc1ccc2nc(NC(=O)OC)[nH]c2c1 [Albendazole, reference compound] | -5.48 |

Same assay, conditions: NIH Clinical Collection NCC-003 raw data; compounds ranked by Z-score; 'flagged' given instead of a Z-score

| Compound | Z-SCORE |
| --- | --- |
| CC12CC3CC(C)(C1)CC(N)(C3)C2 [Memantine hydrochloride, reference compound] | -1.15 |
| COC(=O)C1=C(C)NC(C)=C(C(=O)O[C@@H]2CCCN(Cc3ccccc3)C2)[C@@H]1c1cccc([N+](=O)[O-])c1.Cl (racemic) [BENIDIPINE HCl] | -1.41 |
| MEDROXYPROGESTERONE | -2.38 |
| COCc1c(C(C)C)nc(C(C)C)c(/C=C/[C@@H](O)C[C@@H](O)CC(=O)[O-])c1-c1ccc(F)cc1.[Na+] [CERIVASTATIN Na] | flagged |
| CC(=O)[C@]1(O)Cc2c(O)c3c(c(O)c2[C@@H](O[C@H]2C[C@H](N)[C@H](O)[C@H](C)O2)C1)C(=O)c1ccccc1C3=O [IDARUBICIN HCl] | flagged |
| Cc1c(OCC(F)(F)F)ccnc1C[S+]([O-])c1nc2ccccc2[nH]1 (stereo not shown) [LANSOPRAZOLE] | -1.16 |
| CCC(COC(=O)c1cc(OC)c(OC)c(OC)c1)(c1ccccc1)N(C)C.O=C(O)/C=C\C(=O)O (stereo not shown) [TRIMEBUTINE MALEATE] | -1.14 |
| c1ccc(-c2ccc(C(c3ccccc3)n3ccnc3)cc2)cc1 (stereo not shown) [Bifonazole, reference compound] | -3.45 |
| CC(=O)NC[C@H]1CN(c2ccc(N3CCOCC3)c(F)c2)C(=O)O1 [LINEZOLID] | -1.43 |

Same assay, conditions: compound screen of the NIH Clinical Collection, sheet raw data NCC-003; compounds ranked by Z-score

| Compound | Z-SCORE |
| --- | --- |
| CN1[C@@H]2CC[C@H]1C[C@@H](OC(=O)c1c[nH]c3ccccc13)C2 [TROPISETRON HCl] | 0.72 |
| O=C1[C@H](CC[C@H](O)c2ccc(F)cc2)[C@@H](c2ccc(O)cc2)N1c1ccc(F)cc1 [EZETIMIBE] | 0.64 |
| COc1ccccc1N1CCN(CCCNc2cc(=O)n(C)c(=O)n2C)CC1 [URAPIDIL HYDROCHLORIDE] | 0.51 |
| CN[C@H]1CC[C@@H](c2ccc(Cl)c(Cl)c2)c2ccccc21 [Sertraline, reference compound] | -0.03 |
| COC(=O)C1=C(C)NC(C)=C(C(=O)OCC(C)C)C1c1ccccc1[N+](=O)[O-] (stereo not shown) [NISOLDIPINE] | 2.32 |
| Oc1cc2c(cc1O)[C@@H]1c3ccccc3CN[C@H]1CC2 | 0.99 |
| C[C@]12C[C@H](O)[C@H]3[C@@H](CCC4=CC(=O)CC[C@@]43C)[C@@H]1CC[C@@H]2C(=O)CO [CORTICOSTERONE] | 0.4 |
| CCOC(=O)c1ncn2c1CN(C)C(=O)c1cc(F)ccc1-2 [FLUMAZENIL] | 0.09 |
| CNCC(O)c1ccc(O)cc1 (stereo not shown) [SYNEPHRINE] | -0.41 |
| C#C[C@]1(O)CC[C@H]2[C@@H]3CCc4cc(OC)ccc4[C@H]3CC[C@@]21C [MESTRANOL] | -0.21 |
| COc1ccc(CC2c3cc(OC)c(OC)cc3CC[N+]2(C)CCC(=O)OCCCCCOC(=O)CC[N+]2(C)CCc3cc(OC)c(OC)cc3C2Cc2ccc(OC)c(OC)c2)cc1OC (stereo not shown) [ATRACURIUM BESYLATE] | -0.66 |
| C[C@]12CC[C@H]3[C@@H](CCC4=CC(=O)CC[C@@H]43)[C@@H]1CC[C@@H]2O [nandrolone] | -0.57 |
| CNNCc1ccc(C(=O)NC(C)C)cc1 [PROCARBAZINE HYDROCHLORIDE] | 0.52 |
| CCN1CCCC1CNC(=O)c1cc(S(=O)(=O)CC)c(N)cc1OC (stereo not shown) [Amisulpride] | 0.41 |
| COc1cc(N)c(Cl)cc1C(=O)NC1CN2CCC1CC2 (stereo not shown) [Zacopride] | -0.82 |
| CCCCc1oc2ccccc2c1C(=O)c1cc(I)c(OCCN(CC)CC)c(I)c1 [AMIODARONE HYDROCHLORIDE] | -0.19 |
| O=C(CCCN1CCC(O)(c2ccc(Cl)cc2)CC1)c1ccc(F)cc1 [Haloperidol] | -0.98 |
| C#C[C@]1(O)CC[C@H]2[C@@H]3[C@H](C)CC4=C(CCC(=O)C4)[C@H]3CC[C@@]21C [TIBOLONE] | 2.26 |
| c1ccc(Cn2ccnc2)cc1 [1-BENZYLIMIDAZOLE] | -0.1 |
| Cc1ncc([N+](=O)[O-])n1CCO [METRONIDAZOLE] | -0.28 |
| C#C[C@]1(O)CC[C@H]2[C@@H]3CCC4=CC(=O)CC[C@@H]4[C@H]3CC[C@@]21CC [LEVONORGESTREL] | -1.05 |
| N[C@@H](C(=O)N[C@@H]1C(=O)N2C(C(=O)O)=C(Cl)CS[C@H]12)c1ccccc1 [CEFACLOR] | -0.62 |
| COc1ccc(CCN)cc1OC [Homoveratrylamine] | -0.37 |
| CC1CCN(CCCC(=O)c2ccc(F)cc2)CC1 [Metylperon] | 0.36 |
| CCc1ccc(CCOc2ccc(CC3SC(=O)NC3=O)cc2)nc1 (stereo not shown) [PIOGLITAZONE HCl] | -0.64 |
| CC(C)NCC(O)COc1ccc(CCOCC2CC2)cc1 (stereo not shown) [Betaxolol hydrochloride] | 1.56 |
| C[C@@H](c1ncncc1F)[C@](O)(Cn1cncn1)c1ccc(F)cc1F [VORICONAZOLE] | -0.06 |

Same assay, conditions: compounds at 10 μM, 24 h; PC12 split TEV assay cells co-cultured with Nrg1-expressing PC12 cells; analysed with cellHTS2

| Compound | Z-SCORE |
| --- | --- |
| CN[C@H]1CC[C@@H](c2ccc(Cl)c(Cl)c2)c2ccccc21 [Sertraline, reference compound] | flagged |
| OC(CCN1CCCC1)(c1ccccc1)C1CCCCC1 (stereo not shown) [Kemadrin, reference compound] | -0.51 |
| CC1(C)O[C@@H]2C[C@H]3[C@@H]4C[C@H](F)C5=CC(=O)C=C[C@]5(C)[C@@]4(F)[C@@H](O)C[C@]3(C)[C@]2(C(=O)CO)O1 [FLUOCINOLONE ACETONIDE, reference compound] | -0.16 |
| c1ccc2c(c1)CCCC2C1=NCCN1 (stereo not shown) [Tyzine, reference compound] | 0.46 |
| CO/N=C(\C(=O)N[C@@H]1C(=O)N2C(C(=O)O)=C(COC(N)=O)CS[C@H]12)c1ccco1 [Cefuroxime, reference compound] | 0.08 |
| O=C(O)c1cccnc1 [Nicotinic Acid, reference compound] | -0.31 |
| CC12CC3CC(C)(C1)CC(N)(C3)C2 [Memantine hydrochloride, reference compound] | 0.5 |
| Nc1nc2c(ncn2COCCO)c(=O)[nH]1 [Acyclovir, reference compound] | 0.99 |
| CC(=O)OCC(=O)[C@@]1(O)CC[C@H]2[C@@H]3CCC4=CC(=O)C=C[C@]4(C)[C@H]3[C@@H](O)C[C@@]21C [PREDNISOLONE ACETATE, reference compound] | -0.58 |
| NS(=O)(=O)c1cc2c(cc1Cl)NCNS2(=O)=O [Hydrochlorothiazide, reference compound] | -0.03 |
| OC(c1cc(C(F)(F)F)nc2c(C(F)(F)F)cccc12)C1CCCCN1 (stereo not shown) [Mefloquine hydrochloride, reference compound] | flagged |
| NNC(=O)c1ccncc1 [Isoniazid, reference compound] | -0.38 |
| CN(C)c1ccc(O)c2c1C[C@H]1C[C@H]3[C@H](N(C)C)C(O)=C(C(N)=O)C(=O)[C@@]3(O)C(O)=C1C2=O [MINOCYCLINE HYDROCHLORIDE, reference compound] | -0.02 |
| Nc1ncnc2c1ncn2[C@@H]1O[C@H](CO)[C@@H](O)[C@@H]1O [Adenine 9-beta, reference compound] | 1.63 |
| Cc1cc(NS(=O)(=O)c2ccc(N)cc2)no1 [Sulfamethoxazole, reference compound] | 0.87 |
| C[C@](N)(Cc1ccc(O)c(O)c1)C(=O)O [Methyldopa, reference compound] | 0.63 |
| CCCC(CCC)C(=O)O [Valproic Acid, reference compound] | -1.05 |
| COc1cc(C)c(/C=C/C(C)=C/C=C/C(C)=C/C(=O)O)c(C)c1C [Acitretin, reference compound] | -0.6 |
| CCN(CC)CC#CCOC(=O)C(O)(c1ccccc1)C1CCCCC1 (stereo not shown) [OXYBUTYNIN CHLORIDE, reference compound] | -0.59 |
| O=C1CN(/N=C/c2ccc([N+](=O)[O-])o2)C(=O)N1 [NITROFURANTOIN, reference compound] | -0.02 |
| O=C1NC(=O)C(c2ccccc2)(c2ccccc2)N1 [Dilantin, reference compound] | 0.95 |
| c1ccc(-c2ccc(C(c3ccccc3)n3ccnc3)cc2)cc1 (stereo not shown) [Bifonazole, reference compound] | -3.45 |
| c1ccc(CC2=NCCN2)cc1 [Priscoline, reference compound] | 1.86 |
| CCn1cc(C(=O)O)c(=O)c2ccc(C)nc21 [Nalidixic Acid, reference compound] | 0.31 |
